The term Kd denotes the constant that tells how readily two partners part at equilibrium.

The test deals with TSLP (Homo sapiens, UniProt Q969D9). The test can be described thus: Human TSLP Surface Plasmon Resonance (SPR) binding assay. Set-up: The resulting construct spCD33-6×HN-TEV-hTSLP(29-159)-Avi; 6xHN tag with TEV site (N, cleaved yes); made in house; host or cells: Expi293F cells. The following applies: biotinylated human TSLP immobilized on streptavidin chip; 20° C.; steady-state or kinetic 1:1 fit; read-out: hTSLP SPR Kd.
Chain of TSLP (Q969D9 29-159): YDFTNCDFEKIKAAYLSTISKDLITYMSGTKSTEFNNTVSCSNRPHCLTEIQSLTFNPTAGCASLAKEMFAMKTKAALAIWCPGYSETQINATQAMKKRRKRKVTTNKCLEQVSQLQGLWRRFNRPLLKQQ
Take `CC(=O)N[C@H]1CSCCC(=O)N2CN3CN(C2)C(=O)CCSC[C@H](NC(=O)[C@H](CC(=O)O)NC(=O)[C@H](CCC(=O)O)NC(=O)[C@H](CC(C)C)NC(=O)[C@H](Cc2c[nH]c4ccc(F)cc24)NC(=O)[C@H](CCC(N)=O)NC1=O)C(=O)N[C@@H](Cc1c[nH]c2ccc(F)cc12)C(=O)N[C@@H](CCCNC(=N)N)C(=O)NCC(=O)N[C@@H](Cc1ccc(F)cc1)C(=O)N[C@H](C(N)=O)CSCCC3=O` [Example 21, Ac-(SEQ ID NO: 19)]: the Kd stood at 0.0092 µM.
With `CC(=O)N[C@H]1CSCCC(=O)N2CN3CN(C2)C(=O)CCSC[C@H](NC(=O)[C@H](CC(=O)O)NC(=O)[C@H](CCC(=O)O)NC(=O)[C@H](CC(C)C)NC(=O)[C@H](Cc2c[nH]c4ccccc24)NC(=O)[C@H](CCC(N)=O)NC1=O)C(=O)N[C@@H](Cc1c[nH]c2ccccc12)C(=O)N[C@@H](CCCNC(=N)N)C(=O)NCC(=O)N[C@@H](Cc1ccc(Br)cc1)C(=O)N[C@H](C(N)=O)CSCCC3=O` [Example 26, Ac-(SEQ ID NO: 24)] the figure was 0.011 µM; with `CC(=O)N[C@H]1CSCCC(=O)N2CN3CN(C2)C(=O)CCSC[C@H](NC(=O)[C@H](CC(=O)O)NC(=O)[C@H](CCC(=O)O)NC(=O)[C@H](CC(C)C)NC(=O)[C@H](Cc2c[nH]c4ccccc24)NC(=O)[C@H](CCC(N)=O)NC1=O)C(=O)N[C@@H](Cc1c[nH]c2ccccc12)C(=O)N[C@@H](CCCNC(=N)N)C(=O)NCC(=O)N[C@@H](Cc1cc(F)c(F)c(F)c1)C(=O)N[C@H](C(N)=O)CSCCC3=O` [Example 37, Ac-(SEQ ID NO: 33)], 0.019 µM; with `CC(=O)N[C@H]1CSCCC(=O)N2CN3CN(C2)C(=O)CCSC[C@H](NC(=O)[C@H](CC(=O)O)NC(=O)[C@H](CCC(=O)O)NC(=O)[C@H](CC(C)C)NC(=O)[C@H](Cc2c[nH]c4ccccc24)NC(=O)[C@H](CCC(N)=O)NC1=O)C(=O)N[C@@H](Cc1c[nH]c2ccccc12)C(=O)N[C@@H](CCCNC(=N)N)C(=O)NCC(=O)N[C@@H](Cc1ccc(Cl)c(F)c1)C(=O)N[C@H](C(N)=O)CSCCC3=O` [Example 41, Ac-(SEQ ID NO: 37)], 0.024 µM.
As for `CC(C)C[C@@H]1NC(=O)[C@H](Cc2c[nH]c3ccccc23)NC(=O)[C@H](CCC(N)=O)NC(=O)[C@@H](N)CSCCC(=O)N2CN3CN(C2)C(=O)CCSC[C@H](NC(=O)[C@H](CC(=O)O)NC(=O)[C@H](CCC(=O)O)NC1=O)C(=O)N[C@@H](Cc1c[nH]c2ccccc12)C(=O)N[C@@H](CCCNC(=N)N)C(=O)NCC(=O)N[C@@H](Cc1ccc(F)cc1)C(=O)N[C@H](C(=O)O)CSCCC3=O` [Example 48, (SEQ ID NO: 15)-COOH], the figure is 0.033 µM; as for `CC(=O)N[C@H]1CSCCC(=O)N2CN3CN(C2)C(=O)CCSC[C@H](NC(=O)[C@H](CC(=O)O)NC(=O)[C@H](CCC(=O)O)NC(=O)[C@H](CC(C)C)NC(=O)[C@H](Cc2c[nH]c4ccccc24)NC(=O)[C@H](CCC(N)=O)NC1=O)C(=O)N[C@@H](Cc1c[nH]c2ccccc12)C(=O)N[C@@H](CCCNC(=N)N)C(=O)NCC(=O)N[C@@H](Cc1ccccc1)C(=O)N[C@H](C(=O)N[C@@H](C)C(=O)N1CCC[C@H]1C(=O)N[C@@H](CC(=O)O)C(=O)N[C@@H](CCC(=O)O)C(=O)N[C@@H](CCCNC(=N)N)C(=O)N[C@@H](CC(=O)O)C(N)=O)CSCCC3=O` [Example 54, Ac-(SEQ ID NO: 38)-APDERD], 0.046 µM.
`CC(C)C[C@@H]1NC(=O)[C@H](Cc2c[nH]c3ccccc23)NC(=O)[C@H](CCC(N)=O)NC(=O)[C@@H](NC(=O)[C@H](C)N)CSCCC(=O)N2CN3CN(C2)C(=O)CCSC[C@H](NC(=O)[C@H](CC(=O)O)NC(=O)[C@H](CCC(=O)O)NC1=O)C(=O)N[C@@H](Cc1c[nH]c2ccccc12)C(=O)N[C@@H](CCCNC(=N)N)C(=O)NCC(=O)N[C@@H](Cc1ccccc1)C(=O)N[C@H](C(=O)N[C@@H](CC(=O)O)C(=O)N[C@@H](CC(=O)O)C(=O)N[C@@H](C)C(=O)N[C@@H](Cc1c[nH]cn1)C(=O)N[C@@H](C)C(=O)N1CCC[C@H]1C(N)=O)CSCCC3=O` [Example 55, A-(SEQ ID NO: 38)-DDAHAP]: the Kd came to 0.047 µM.
With `CC(=O)N[C@H]1CSCCC(=O)N2CN3CN(C2)C(=O)CCSC[C@H](NC(=O)[C@H](CC(=O)O)NC(=O)[C@H](CCC(=O)O)NC(=O)[C@H](CC(C)C)NC(=O)[C@H](Cc2c[nH]c4ccccc24)NC(=O)[C@H](CCC(N)=O)NC1=O)C(=O)N[C@@H](Cc1c[nH]c2ccccc12)C(=O)N[C@@H](CCCNC(=N)N)C(=O)NCC(=O)N[C@@H](Cc1cc(F)c(Cl)c(F)c1)C(=O)N[C@H](C(N)=O)CSCCC3=O` [Example 58, Ac-(SEQ ID NO: 46)] the figure was 0.052 µM.
As for `CC(C)C[C@@H]1NC(=O)[C@H](Cc2c[nH]c3ccccc23)NC(=O)[C@H](CCC(N)=O)NC(=O)[C@@H](NC(=O)[C@@H](NC(=O)[C@H](CCCNC(=N)N)NC(=O)[C@H](CCC(N)=O)NC(=O)[C@H](CCC(=O)O)NC(=O)[C@H](CC(=O)O)NC(=O)[C@@H](N)CO)[C@@H](C)O)CSCCC(=O)N2CN3CN(C2)C(=O)CCSC[C@H](NC(=O)[C@H](CC(=O)O)NC(=O)[C@H](CCC(=O)O)NC1=O)C(=O)N[C@@H](Cc1c[nH]c2ccccc12)C(=O)N[C@@H](CCCNC(=N)N)C(=O)NCC(=O)N[C@@H](Cc1ccccc1)C(=O)N[C@H](C(=O)N[C@@H](C)C(N)=O)CSCCC3=O` [Example 61, SDEQRT-(SEQ ID NO: 38)-A], the figure is 0.062 µM; as for `CC(C)C[C@@H]1NC(=O)[C@H](Cc2c[nH]c3ccccc23)NC(=O)[C@H](CCC(N)=O)NC(=O)[C@@H](NC(=O)CNC(=O)[C@@H](NC(=O)[C@H](CCC(=O)O)NC(=O)[C@H](CC(=O)O)NC(=O)[C@@H](NC(=O)[C@@H](N)CCCNC(=N)N)[C@@H](C)O)[C@@H](C)O)CSCCC(=O)N2CN3CN(C2)C(=O)CCSC[C@H](NC(=O)[C@H](CC(=O)O)NC(=O)[C@H](CCC(=O)O)NC1=O)C(=O)N[C@@H](Cc1c[nH]c2ccccc12)C(=O)N[C@@H](CCCNC(=N)N)C(=O)NCC(=O)N[C@@H](Cc1ccccc1)C(=O)N[C@H](C(=O)N[C@@H](C)C(N)=O)CSCCC3=O` [Example 67, RTDETG-(SEQ ID NO: 38)-A], 0.075 µM.
In the case of `CC(=O)N[C@H]1CSCCC(=O)N2CN3CN(C2)C(=O)CCSC[C@H](NC(=O)[C@H](CC(=O)O)NC(=O)[C@H](CCC(=O)O)NC(=O)[C@H](CC(C)C)NC(=O)[C@H](Cc2cccc4ccccc24)NC(=O)[C@H](CCC(N)=O)NC1=O)C(=O)N[C@@H](Cc1c[nH]c2ccccc12)C(=O)N[C@@H](CCCNC(=N)N(C)C)C(=O)NCC(=O)N[C@@H](Cc1ccc(F)cc1)C(=O)N[C@H](C(=O)O)CSCCC3=O` [Example 69, Ac-(SEQ ID NO: 34)-COOH], the Kd was determined as 0.077 µM.
Regarding `CC(C)C[C@@H]1NC(=O)[C@H](Cc2c[nH]c3ccccc23)NC(=O)[C@H](CCC(N)=O)NC(=O)[C@@H](NC(=O)[C@H](CCC(=O)O)NC(=O)[C@H](CC(C)C)NC(=O)[C@H](CC(N)=O)NC(=O)[C@H](CC(N)=O)NC(=O)[C@@H](NC(=O)[C@@H](N)CCC(=O)O)[C@@H](C)O)CSCCC(=O)N2CN3CN(C2)C(=O)CCSC[C@H](NC(=O)[C@H](CC(=O)O)NC(=O)[C@H](CCC(=O)O)NC1=O)C(=O)N[C@@H](Cc1c[nH]c2ccccc12)C(=O)N[C@@H](CCCNC(=N)N)C(=O)NCC(=O)N[C@@H](Cc1ccccc1)C(=O)N[C@H](C(=O)N[C@@H](C)C(N)=O)CSCCC3=O` [Example 71, ETNNLE-(SEQ ID NO: 38)-A], the Kd is 0.082 µM.

The values above are taken from patent US11866518B2, “Bicyclic peptide ligands specific for TSLP” (BicycleTx Limited, priority 2020, dated 2024).
